In patent US4256746A, “Dechloromaytansinoids, their pharmaceutical compositions and method of use” (priority 1978, dated 1981):
Converted amounts (≈) assume the structure as drawn. Like-named read-outs stand apart in the source and are kept apart here.

Key:
[1] = tested on: melanoma B-16; assay: Antitumor activity, life span prolongation of mice transplanted intraperitoneally with melanoma B-16 tumor cells; type: in vivo; conditions: i.p. once daily for 9 consecutive days
Experimental: (§1) Therapeutic tests were carried out in mice according to NCI-protocols 1,200 and 1,300, Cancer Chemother, Reports, Part 3, 1972, Vol. 3, No. 2, in which leukemia P-388 and melanoma B-16 tumor cells had been intraperitoneally transplanted, compound (I) being administered intraperitoneally once daily for 9 consecutive days.

[2] = tested on: leukemia P-388; assay: Antitumor activity, life span prolongation of mice transplanted intraperitoneally with leukemia P-388 tumor cells; type: in vivo; conditions: i.p. once daily for 9 consecutive days
Experimental: as §1

[3] = tested on: Tetrahymena pyriformis W; assay: Antiprotozoal activity, growth inhibition by the serial dilution method; type: cell-based
Experimental: Antiprotozoal activity of compound (I) was assayed with Tetrahymena pyriformis W as the test organism and a medium composed of 20 g tryptose-peptone (Difco Co.), 1 g yeast extract, 2 g glucose, 1000 ml distilled water, 10 ml 1 M phosphate buffer (pH 7.0) as the assay medium. The microorganism was incubated at 28° C. for 44 to 48 hours and the growth inhibitory activity of compound (I) was assayed by the serial dilution method.

[4] = Tetrahymena pyriformis, pH 7, read-out: Antiprotozoal activity MIC (minimal inhibitory concentration)

Compound | Antitumor activities B-16 (T/C %) ([1]; 100 μg/kg) | Antitumor activities B-16 (T/C %) ([1]; 200 μg/kg) | Antitumor activities B-16 (T/C %) ([1]; 400 μg/kg) | Antitumor activities B-16 (T/C %) ([1]; 800 μg/kg) | Antitumor activities P-388 (T/C %) ([2]; 50 μg/kg) | Antitumor activities P-388 (T/C %) ([2]; 100 μg/kg) | Antitumor activities P-388 (T/C %) ([2]; 200 μg/kg) | Antitumor activities P-388 (T/C %) ([2]; 400 μg/kg) | MIC [3, 4] | MIC ([3]; Tetrahymena pyriformis W, 28° C., 44 to 48 hours, serial dilution method, pH 7.0, read-out: Antiprotozoal activity MIC (minimal inhibitory concentration))
COc1cc2cc(c1)N(C)C(=O)CC(OC(=O)[C@H](C)N(C)C(C)=O)C1(C)OC1C(C)C1CC(O)(NC(=O)O1)C(OC)C=CC=C(C)C2 (stereo partly shown) [Dechloromaytansine, dechloromaytansine] | 171 T/C % | 152 T/C % | 179 T/C % | 190 T/C % | 158 T/C % | 165 T/C % | 175 T/C % | 189 T/C % | – | –
COc1cc2cc(c1)N(C)C(=O)CC(OC(=O)CCl)C1(C)OC1C(C)C1CC(O)(NC(=O)O1)C(OC)C=CC=C(C)C2 (stereo not shown) [Dechloromaytansinol 3-chloroacetate, dechloromaytansinol 3-chloroacetate] | – | – | – | – | – | – | – | – | ≥ 4 mg/L | –
COc1cc2cc(c1)N(C)C(=O)CC(OC(=O)C(C)C)C1(C)OC1C(C)C1CC(O)(NC(=O)O1)C(OC)C=CC=C(C)C2 (stereo not shown) [Dechloromaytansinol 3-isobutyrate, dechloromaytansinol 3-isobutyrate] | 150 T/C % | 152 T/C % | 174 T/C % | 214 T/C % | 168 T/C % | 189 T/C % | 193 T/C % | 224 T/C % | – | –
COc1cc2cc(c1)N(C)C(=O)CC(OC(=O)Cc1ccccc1)C1(C)OC1C(C)C1CC(O)(NC(=O)O1)C(OC)C=CC=C(C)C2 (stereo not shown) [Dechloromaytansinol 3-phenylacetate, dechloromaytansinol 3-phenylacetate] | – | – | – | – | – | – | – | – | – | 2 mg/L (≈ 3.08 µM)
COc1cc2cc(c1)N(C)C(=O)CC(OC(=O)C1CCCCC1)C1(C)OC1C(C)C1CC(O)(NC(=O)O1)C(OC)C=CC=C(C)C2 (stereo not shown) [dechloromaytansinol 3-cyclohexanecarboxylate] | – | – | – | – | – | – | – | – | 4 mg/L (≈ 6.24 µM) | –
